Reference: patent publication US7157453B2, “Urea substituted imidazoquinolines” (3M Innovation Properties Company, priority 1999, dated 2007)

Legend:
[1] = tested on: tumor necrosis factor (α); experiment: Cytokine Induction in Human Cells: tumor necrosis factor (α) by ELISA; assay type: cell-based; conditions: PBMC; human PBMCs, incubated 18 to 24 hours, lowest concentration found to induce tumor necrosis factor
How it was run: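 Healthy-donor PBMCs (1.5–2×10^6 cells/mL final, RPMI with 10% FBS) incubated 18–24 h at 37 °C with compound in three- or ten-fold serial dilutions, DMSO ≤1% final. Supernatant TNF measured by ELISA; value is lowest concentration inducing TNF.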

[2] = tested on: interferon (α); experiment: Cytokine Induction in Human Cells: interferon (α) by ELISA; assay type: cell-based; conditions: PBMC; human PBMCs, incubated 18 to 24 hours, lowest concentration found to induce interferon
How it was run: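 Healthy-donor human PBMCs (1.5–2×10^6 cells/mL final, RPMI with 10% FBS) exposed to serially diluted compound (≤1% DMSO) for 18–24 h at 37 °C, 5% CO2. Supernatant IFN-α measured by ELISA; value reported is lowest concentration inducing interferon.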

Row | melting point [°C] | SMILES | minimal effective concentration [1] [µM] | minimal effective concentration [2] [µM]
1 | 151 to 153 | CC(C)(C)OC(=O)NCCCn1c(CCCOc2ccccc2)nc2c(N)nc3ccccc3c21 [Example 174, tert-butyl 3-[4-amino-2-(3-phenoxypropyl)-1H-imidazo[4,5-c]quinolin-1-yl]propylcarbamate] | > 30 | > 30
2 | 144.5 to 145.5 | CCCCc1nc2c(N)nc3ccccc3c2n1CCCNC(=S)NCCC [Example 152, N-[3-(4-amino-2-butyl-1H-imidazo[4,5-c]quinolin-1-yl)propyl]-N′-propylthiourea] | 0.04 | 0.04
3 | 133.6 to 134.6 | Cc1nc2c(N)nc3c(c2n1CCCCNC(=O)N1CCOCC1)CCCC3 [Example 170, N-[4-(4-amino-2-methyl-6,7,8,9-tetrahydro-1H-imidazo[4,5-c]quinolin-1-yl)butyl]morpholine-4-carboxamide] | 10 | 0.12
4 | 142.8 to 144 | CCCCc1nc2c(N)nc3ccccc3c2n1CCCNC(=S)Nc1ccccc1 [Example 149, N-[3-(4-amino-2-butyl-1H-imidazo[4,5-c]quinolin-1-yl)propyl]-N′-phenylthiourea] | 0.37 | 0.04
5 | 193.4 to 194.6 | CCCCc1nc2c(N)nc3ccccc3c2n1CCCNC(=O)N1CCOCC1 [Example 151, N-[3-(4-amino-2-butyl-1H-imidazo[4,5-c]quinolin-1-yl)propyl]morpholine-4-carboxamide] | 0.01 | 0.01
6 | 170.4 to 171.6 | CCCCCCc1nc2c(N)nc3ccccc3c2n1CCCCNC(=O)Nc1ccccc1 [Example 155, N-[4-(4-amino-2-hexyl-1H-imidazo[4,5-c]quinolin-1-yl)butyl]-N′-phenylurea] | 10 | 3.33
7 | 194 to 196 | COCCc1nc2c(N)nc3ccccc3c2n1CCCNC(=O)N1CCOCC1 [Example 163, N-{3-[4-amino-2-(2-methoxyethyl)-1H-imidazo[4,5-c]quinolin-1-yl]propyl}morpholine-4-carboxamide] | 0.01 | 0.01
8 | 215 | CC(C)(C)OC(=O)NCCn1cnc2c(N)nc3ccccc3c21 [Example 1, Tert-Butyl N-[2-(4-Amino-1H-imidazo[4,5-c]quinolin-1-yl)ethyl]carbamate] | 30 | 3.33
9 | 172 to 173 | CCCNC(=S)NCCCn1c(CCOC)nc2c(N)nc3ccccc3c21 [Example 156, N-{3-[4-amino-2-(2-methoxyethyl)-1H-imidazo[4,5-c]quinolin-1-yl]propyl}-N′-propylthiourea] | 1.11 | 0.01
10 | 200 to 201 | CCCCc1nc2c(N)nc3ccccc3c2n1CCCNC(=O)NC1CCCCC1 [Example 153, N-[3-(4-amino-2-butyl-1H-imidazo[4,5-c]quinolin-1-yl)propyl]-N′-cyclohexylurea] | 0.12 | 0.01
11 | 177 to 179.5 | Nc1nc2ccccc2c2c1ncn2CCCCNC(=O)N1CCOCC1 [Example 5, N^4-[4-(4-Amino-1H-imidazo[4,5-c]quinolin-1-yl)butyl]-4-morpholinecarboxamide] | > 30 | 3.33
12 | 185.5 to 186.4 | CCCCNC(=O)NCCCn1c(CCCC)nc2c(N)nc3ccccc3c21 [Example 150, N-[3-(4-amino-2-butyl-1H-imidazo[4,5-c]quinolin-1-yl)propyl]-N′-butylurea] | 0.37 | 0.04
13 | 196 to 198 | CC(C)(C)OC(=O)NCCCn1cnc2c(N)nc3ccccc3c21 [Example 173, tert-butyl 3-(4-amino-1H-imidazo[4,5-c]quinolin-1-yl)propylcarbamate] | 10 | 1.11
14 | 199 to 200 | COCCc1nc2c(N)nc3ccccc3c2n1CCCNC(=S)NC1CCCCC1 [Example 157, N-{3-[4-amino-2-(2-methoxyethyl)-1H-imidazo[4,5-c]quinolin-1-yl]propyl}-N′-cyclohexylthiourea] | 1.11 | 0.37
15 | 174.2 to 175.8 | COCCc1nc2c(N)nc3ccccc3c2n1CCCNC(=O)OC(C)(C)C [Example 148, tert-butyl 3-[4-amino-2-(2-methoxyethyl)-1H-imidazo[4,5-c]quinolin-1-yl]propylcarbamate] | 0.04 | 0.04
